Where a SMILES comes first, the peptide text is derived from it. The star is where a group is joined. NBD = O=[N+]([O-])c1ccc(*)c2nonc12; Ahx = NCCCCCC(=O)O
Columns and labels:
[1] = test system: HO-1 expression in A549 cells; test: HO-1 ELISA of treated A549 cells; format: cell-based, human; conditions: 24 h, HO-1 ELISA kit, versus DMSO control
Protocol: 7. Enzyme linked immunosorbent assay (ELISA)
A549 cells (8×10^3 cells per well) were seeded in 6-well plates and incubated in a CO2 incubator at 37°C for 24 h. Cells were treated with 50 μM hemin, 1 μM ZnPP or DMSO. After 24 h incubation, cells were washed with PBS, lysed with NP-40 buffer containing 1.0 mM PMSF, followed by centrifugation (12000 rpm, 5 min) to harvest the supernatant. The assay was carried out by strictly following instructions provided. Absorbance at 450 nm was recorded using the BioTek Synergy-2 Microplate Reader to calculate the HO-1 concentration under different treatments. […]
(§1) 37°C for 24 h. Cells were treated with 50 μM hemin, 1 μM ZnPP or DMSO. After 24 h incubation, 10 μM NBD-P 5 was added and incubated with the cells for 2 h. The cells were then fixed with 4% polyoxymethylene for 20 min. Afterwards, the nuclei were stained using DAPI for 20 min. […]

[2] = test system: HO-1 levels in live A549 cells; test: Fluorescence imaging of HO-1 levels with NBD-P5 in treated A549 cells; format: cell-based, human; conditions: A549 cells pretreated 24 h (hemin 50 μM, ZnPP 1 μM), then NBD-P5 10 μM 2 h, confocal imaging
Protocol: (§2) 37°C for 24 h. Cells were treated with 50 μM hemin, 1 μM ZnPP or DMSO. […]
A549 cells (8×10^3 cells per well) were seeded into confocal dish and incubated in a CO2 incubator at 37°C for 24 h. Cells were treated with 50 μM hemin, 1 μM ZnPP or DMSO. After 24 h incubation, 10 μM NBD-P 5 was added and incubated with the cells for 2 h. The cells were then fixed with 4% polyoxymethylene for 20 min. Afterwards, the nuclei were stained using DAPI for 20 min.
Fluorescence images were measured by ZEISS LSM 980 with Airyscan 2 confocal laser scanning

[3] = biological target: T1, recombinant HO-1 protein with a 6xHis tag (Homo sapiens, UniProt P09601); test: Luminescence titration of NBD-Pn with HO-1; format: binding; conditions: 4.5 μM HO-1, 2 μM probe, pH 7.4 PBS, λex = 475 nm; for increase in fluorescence intensity on addition of HO-1: emission at 526 nm, measured within 1 min
T1 construct: 6xHis
T1 sequence (P09601 1-288): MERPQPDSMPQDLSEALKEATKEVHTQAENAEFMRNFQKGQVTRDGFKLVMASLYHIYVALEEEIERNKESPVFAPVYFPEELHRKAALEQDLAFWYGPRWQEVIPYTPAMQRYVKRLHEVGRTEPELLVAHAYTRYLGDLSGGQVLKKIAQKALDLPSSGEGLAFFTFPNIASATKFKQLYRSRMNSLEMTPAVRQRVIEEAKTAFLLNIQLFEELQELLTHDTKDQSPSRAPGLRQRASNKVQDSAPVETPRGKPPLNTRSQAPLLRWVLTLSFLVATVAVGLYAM
Protocol: (§3) 4. Photophysical measurements
(§4) All spectra were measured using a stock solution of the probes (1 mM in DMSO) which was diluted with pH 7.4 PBS buffer to the desired concentration. […]
All measurements were conducted using a 700 μL quartz cuvette and within a minute after addition of the analyte. […]

[4] = biological target: human serum albumin (HSA) (Homo sapiens, UniProt P02768); test: Selectivity assay, emission with HSA; format: binding; conditions: 4.5 μM HSA, 2 μM probe, pH 7.4 PBS, emission at 526 nm
Protocol: as §3, §4
(§5) Selectivity assay was performed by measuring emission of NBD-Pn in pH 7.4 PBS buffer in presence of varying analytes including HO-1, common proteins, amino acids, and biologically relevant ions. All measurements were conducted using a 700 μL quartz cuvette and within a minute after addition of the analyte. […]

[5] = biological target: bovine serum albumin (BSA) (Bos taurus, UniProt P02769); test: Selectivity assay, emission with BSA; format: binding; conditions: 4.5 μM BSA, 2 μM probe, pH 7.4 PBS, emission at 526 nm
Protocol: as §3, §4, §5

A549 cells [6] = test: Flow cytometry analysis of cellular uptake; format: cell-based, human; conditions: 10 μM, time course of 2.5 h
Protocol: as §2
8. Flow cytometry analysis
A549 cells were first seeded into 12-well plates (1.0 × 10^5 cells/well) and incubated overnight to achieve adherence. Then, 10 μM NBD-P 5 was added, and incubated for different times. The cells were washed twice with cold PBS and harvested by trypsinization, followed by centrifugation (1500 x g, 5.0 min). The obtained cells were re-suspended in PBS and analyzed using flow cytometry (BD […]
as §1

A549 cells [7] = test: Colocalization experiment with organelle trackers; format: cell-based, human; conditions: 10 μM probe 2 h
Protocol: 10. Colocalization experiment
A549 cells (8×10^3 cells per well) were seeded into confocal dish and incubated in a CO2 incubator at 37°C for 24 h. After incubation with NBD-P5 (10 μM) for 2 h, cells were co-stained with ER-Tracker red (400 nM) for 20 min, Lyso-Tracker red (60 nM) for 30 min, or Mito-Tracker red (50 nM) for 30 min. Fluorescence images were measured by ZEISS LSM 980 with Airyscan 2 confocal laser scanning

HO-1 expression = conditions: study by Fang and co-workers; cited from earlier work
NBD-P5 = biological target: T2, NBD-P5; test: other fluorescence titration; emission of the NBD probe (2 uM, ex 475 nm, read at 526 nm) on addition of protein in solution (HO-1 in increasing concentrations up to 4.5 uM; HSA, BSA at 4.5 uM); measured within a minute after addition; conditions: both partners purified
T2 construct: also called YWFYR-CONH2; NBD-Pn (n = 5); source: synthetic peptide, NBD-Ahx coupled with PyBOP, TFA cleavage, reversed-phase HPLC
T2 peptide: {NBD-Ahx}-YWFYR-NH2

NBD-P4 = biological target: T3, NBD-P4; test: as above; conditions: both partners purified
T3 construct: caveolin-1 residues Y97-Y100 (the pentapeptide without arginine 101); also called YWFY-CONH2; NBD-Pn (n = 4); source: synthetic peptide, NBD-Ahx coupled with PyBOP, TFA cleavage, reversed-phase HPLC
T3 peptide: {NBD-Ahx}-YWFY-NH2

Sequence of human serum albumin (HSA) (P02768 25-609): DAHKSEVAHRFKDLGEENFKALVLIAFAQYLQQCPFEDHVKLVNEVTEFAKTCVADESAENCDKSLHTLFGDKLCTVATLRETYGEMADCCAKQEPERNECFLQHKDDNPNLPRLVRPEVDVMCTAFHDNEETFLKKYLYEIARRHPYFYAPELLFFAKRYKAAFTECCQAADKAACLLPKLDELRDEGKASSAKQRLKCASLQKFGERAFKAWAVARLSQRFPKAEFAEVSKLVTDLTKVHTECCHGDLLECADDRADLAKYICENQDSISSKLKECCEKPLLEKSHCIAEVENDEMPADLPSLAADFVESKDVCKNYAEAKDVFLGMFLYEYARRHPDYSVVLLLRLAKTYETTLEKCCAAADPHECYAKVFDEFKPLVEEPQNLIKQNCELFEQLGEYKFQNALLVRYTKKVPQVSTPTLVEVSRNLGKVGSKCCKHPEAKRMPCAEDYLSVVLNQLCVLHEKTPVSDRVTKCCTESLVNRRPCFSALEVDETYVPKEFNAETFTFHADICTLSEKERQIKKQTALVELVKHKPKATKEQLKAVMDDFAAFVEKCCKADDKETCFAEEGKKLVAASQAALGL
Sequence of bovine serum albumin (BSA) (P02769 25-607): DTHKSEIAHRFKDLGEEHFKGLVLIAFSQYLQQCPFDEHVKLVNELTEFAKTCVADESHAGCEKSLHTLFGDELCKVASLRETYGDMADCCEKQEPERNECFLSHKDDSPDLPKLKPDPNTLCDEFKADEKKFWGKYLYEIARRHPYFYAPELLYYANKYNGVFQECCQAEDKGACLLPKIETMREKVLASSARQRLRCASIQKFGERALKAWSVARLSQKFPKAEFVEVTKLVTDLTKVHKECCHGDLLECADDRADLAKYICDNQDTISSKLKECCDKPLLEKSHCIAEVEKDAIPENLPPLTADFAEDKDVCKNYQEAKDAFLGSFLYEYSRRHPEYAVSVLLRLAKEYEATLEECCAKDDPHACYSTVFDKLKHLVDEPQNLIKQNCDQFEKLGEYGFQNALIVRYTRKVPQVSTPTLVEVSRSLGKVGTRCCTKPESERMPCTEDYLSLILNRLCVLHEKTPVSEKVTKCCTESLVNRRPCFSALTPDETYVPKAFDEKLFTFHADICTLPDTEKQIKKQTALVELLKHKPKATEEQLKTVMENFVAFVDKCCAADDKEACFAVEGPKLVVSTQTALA

**Q.** Which “upregulation of HO-1 expression” value ([1]; 50 μM) does the source give for hemin here?
**A.** around 1.53 fold

**Q.** What about the “NBD-P5 fluorescence in treated cells compared with control cells” value [2] of the same molecule?
**A.** significantly stronger green fluorescence

**Q.** Which “increase in fluorescence intensity on addition of HO-1” value [3] does the source give for `NC(=O)[C@H](Cc1ccc(O)cc1)NC(=O)[C@H](Cc1ccccc1)NC(=O)[C@H](Cc1c[nH]c2ccccc12)NC(=O)[C@H](Cc1ccc(O)cc1)NC(=O)CCCCCNc1ccc([N+](=O)[O-])c2nonc12` [NBD-P4] (HELM PEPTIDE1{[O=[N+]([O-])c1ccc([*:2])c2nonc12].[O=C(CCCCCN[*:1])[*:2]].Y.W.F.Y.[am]}$$$$V2.0) here?
**A.** 6 fold

**Q.** With `N=C(N)NCCC[C@H](NC(=O)[C@H](Cc1ccc(O)cc1)NC(=O)[C@H](Cc1ccccc1)NC(=O)[C@H](Cc1c[nH]c2ccccc12)NC(=O)[C@H](Cc1ccc(O)cc1)NC(=O)CCCCCNc1ccc([N+](=O)[O-])c2nonc12)C(N)=O` [NBD-P5] (HELM PEPTIDE1{[O=[N+]([O-])c1ccc([*:2])c2nonc12].[O=C(CCCCCN[*:1])[*:2]].Y.W.F.Y.R.[am]}$$$$V2.0) as the molecule, how does the “blue shift in fluorescence wavelength maxima on addition of HO-1” value [3] read?
**A.** 24 nm

**Q.** What about the “increase in fluorescence intensity on addition of HO-1” value [3] of the same molecule?
**A.** 9 fold

**Q.** And the “fluorescence change on addition of HSA” value [4]?
**A.** small fluorescence increase

**Q.** And the “fluorescence change on addition of BSA” value [5]?
**A.** small fluorescence increase

**Q.** What about the “uptake by A549 cells” value (A549 cells [6]) of the same molecule?
**A.** increased rapidly in the first 1 h

**Q.** And the “Pearson's correlation coefficient with ER-Tracker red” value (A549 cells [7]; ER-Tracker red 400 nM 20 min, ImageJ)?
**A.** 0.97

**Q.** And the “colocalization with either Lyso-Tracker or Mito-Tracker” value (A549 cells [7]; Lyso-Tracker red 60 nM or Mito-Tracker red 50 nM 30 min)?
**A.** not as significant as that with ER-Tracker

**Q.** Which “upregulation of HO-1” value (HO-1 expression) does the source give for `CC(C)(C)c1cc(O)ccc1O` [tBHQ] here?
**A.** about 1.6 fold

**Q.** What does the source list for `C=CC1=C(C)c2cc3[n-]c(cc4[n-]c(cc5nc(cc1n2)C(C)=C5C=C)c(C)c4CCC(=O)O)c(CCC(=O)O)c3C.[Zn+2]` [ZnPP, zinc(II) protoporphyrin]?
**A.** HO-1 level relative to DMSO control ([1]; 1 μM): 0.89 fold; NBD-P5 fluorescence in treated cells compared with control cells [2]: relatively weaker fluorescence signal

B1: Heme oxygenase-1 (enzyme)
chain: T1 sequence (P09601 1-288)
**Q.** Which “fold increase in fluorescence intensity of the probe with 4.5 uM HO-1” value (NBD-P5) does the source give for B1 here?
**A.** 9 fold

**Q.** What about the “fold increase in fluorescence intensity of the probe with HO-1” value (NBD-P4) of the same molecule?
**A.** 6 fold

Source: PMC11773557, “NADPH-Independent Fluorescent Probe for Live-Cell Imaging of Heme Oxygenase-1” (ACS Sensors, 2025)
